Source: PMC8274062, “Promising Non-cytotoxic Monosubstituted Chalcones to Target Monoamine Oxidase-B” (ACS Medicinal Chemistry Letters, 2021)
Several values for one entry are separate records, joined by “and”; a condition that tells them apart may be missing. Equal entries are not always repeated.

Tests used:
[1] = biological target: T1, human recombinant MAO-A (Homo sapiens, UniProt P21397); experiment: Monoamine oxidase inhibition assay (Amplex Red, kynuramine), MAO-A; settings: read-out: Ki MAO-A; kynuramine substrate, pH 7.4, 37°C
T1 sequence (P21397 1-527): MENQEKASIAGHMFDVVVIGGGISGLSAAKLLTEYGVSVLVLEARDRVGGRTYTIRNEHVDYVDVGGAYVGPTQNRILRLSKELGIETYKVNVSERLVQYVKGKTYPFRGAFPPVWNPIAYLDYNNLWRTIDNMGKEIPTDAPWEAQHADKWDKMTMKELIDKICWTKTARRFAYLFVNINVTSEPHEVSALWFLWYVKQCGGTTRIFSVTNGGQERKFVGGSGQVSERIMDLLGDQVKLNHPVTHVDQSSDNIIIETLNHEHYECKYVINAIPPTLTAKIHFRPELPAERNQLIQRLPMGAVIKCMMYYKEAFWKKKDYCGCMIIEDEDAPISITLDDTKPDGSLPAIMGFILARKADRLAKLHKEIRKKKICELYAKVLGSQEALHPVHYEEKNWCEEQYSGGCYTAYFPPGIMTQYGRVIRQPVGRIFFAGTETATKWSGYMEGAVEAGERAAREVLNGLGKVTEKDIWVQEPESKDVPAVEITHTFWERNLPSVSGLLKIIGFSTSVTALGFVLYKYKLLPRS
Procedure: (§1) Materials. Human recombinant MAO-A and MAO-B were expressed in baculovirus infected BT1 cells (5 mg/ml) and horseradish peroxidases were purchased from Fluka-Sigma-Aldrich s.r.l. (Italy). A Cary-Eclipse fluorimeter (Varian Inc., Palo Alto, CA, USA) was employed for fluorescence measurements.
(§2) Monoamine oxidase inhibition assay. Monoamine oxidase activity was determined by measuring H2O2 generation rate by a peroxidase-coupled continuous assay, using the Amplex Red reagent as fluorogenic substrate for horseradish peroxidase.1 All experiments were carried out as previously reported,2 in 100 mM potassium phosphate buffer, 0.1 mM EDTA, pH 7.4 and at 37°C. The assays were carried out in a final volume of 800 L, in the presence of Amplex Red (100 M) and horseradish peroxidase type II (5 UmL -1), and using kynuramine (20-1200 M) as common MAO-A and MAO-B substrate. h-MAO-A and h-MAO-B concentration in the assay solutions were 3 and 6 g/ml, respectively. After 5 min of pre-incubation of the enzyme with the compounds, substrate was added and the initial rates of reaction were recorded. The rates of the enzymatic reaction were determined by detecting the increase in the fluorescence intensity at
(§3) The generation rate of H2O2 was calculated from the increase of fluorescence intensity by means of calibration curves obtained using standard solution of H2O, in
M of maxima concentrations tested).
(§4) Steady state kinetic parameters (V max and K m) were calculated by fitting the Michaelis-Menten equation to the experimental data (initial velocity vs substrate concentrations), with Sigma Plot software, version 9.0 (Jandel Scientific, San Rafael, CA, USA). The mode of inhibition was determined by global fit analysis (GraphPad 9.0 software, GraphPad Software, San Diego, CA,
(§5) USA) of the initial velocity (V0) vs substrate concentration plots, at various inhibitor concentrations. The competitive, mixed, non-competitive and uncompetitive inhibition models were analysed and the fit giving the highest r2 value was chosen for the calculation of inhibition
(§6) compounds, experimental data are presented as double reciprocal Lineweaver-Burk plots (1/v vs 1/S). Ki values are expressed as mean ±S.D. All experiments were carried out at least in

[2] = test system: A2780 (human ovarian carcinoma cells); experiment: Cell growth assay (trypan blue), A2780; format: cell-based; settings: A2780, 72 h of incubation
[3] = test system: HT-29 (human colorectal adenocarcinoma); experiment: Cell growth assay (trypan blue), HT-29; format: cell-based; settings: HT-29, 72 h of incubation
[4] = biological target: T2, human recombinant MAO-B (Homo sapiens, UniProt P27338); experiment: Monoamine oxidase inhibition assay (Amplex Red, kynuramine), MAO-B; settings: for mode of inhibition: Lineweaver–Burk double-reciprocal plots, MAO-B; for Ki: read-out: Ki MAO-B, kynuramine substrate, pH 7.4, 37°C
T2 sequence (P27338 1-520): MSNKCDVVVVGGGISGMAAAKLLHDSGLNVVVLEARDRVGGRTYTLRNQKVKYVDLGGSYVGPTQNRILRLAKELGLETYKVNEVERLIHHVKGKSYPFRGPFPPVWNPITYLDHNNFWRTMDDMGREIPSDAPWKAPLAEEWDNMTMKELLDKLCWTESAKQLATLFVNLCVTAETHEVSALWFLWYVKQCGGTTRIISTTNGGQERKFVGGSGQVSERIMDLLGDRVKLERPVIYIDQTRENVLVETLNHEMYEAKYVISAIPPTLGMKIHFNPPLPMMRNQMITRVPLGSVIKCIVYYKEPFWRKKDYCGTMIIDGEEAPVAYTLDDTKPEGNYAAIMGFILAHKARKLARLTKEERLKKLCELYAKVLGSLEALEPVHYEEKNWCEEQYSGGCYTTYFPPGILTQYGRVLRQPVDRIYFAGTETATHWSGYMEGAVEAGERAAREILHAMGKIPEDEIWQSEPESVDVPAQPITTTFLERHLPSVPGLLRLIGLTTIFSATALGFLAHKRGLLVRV
Procedure: as §1, §2, §3
M of maxima concentrations tested).
as §4, §5, §6

[5] = test system: Met-5A (human mesothelial cells); experiment: Cell growth assay (trypan blue), Met-5A; format: cell-based; settings: nontumorigenic Met-5A mesothelial cells
Source text: fluorescence measurements.
prepared in dimethylsulfoxide.
performed to determine cell viability.
µM of maxima concentrations tested).
The mode of inhibition was […]

[6] = test system: recombinant MAO-A or MAO-B; experiment: Reversibility assay (dialysis/ultrafiltration); format: biochemical, human; settings: incubated at 4 times the Ki value for 20 min before dialysis
[7] = test system: MAO-B; set-up: method as in PMID 26337020, PMID 28577983; settings: previously tested; ref [19],[23]; cited from earlier work

## O=C(/C=C/c1ccccc1[N+](=O)[O-])c1ccccc1 [Compound 1]
[1]
  Ki: 2.2 µM
[2]
  GI50: > 20 µM
[3]
  GI50: > 20 µM
[4]
  mode of inhibition: competitive behavior
  Ki: 0.4 ± 0.08 µM

## O=C(/C=C/c1cccc([N+](=O)[O-])c1)c1ccccc1 [Compound 2]
[1]
  Ki: 2.5 µM
[2]
  GI50: 2.8 ± 0.3 µM
[3]
  GI50: 5 ± 1.8 µM
[4]
  Ki: 0.071 ± 0.011 µM

## O=C(/C=C/c1ccc([N+](=O)[O-])cc1)c1ccccc1 [Compound 3]
[2]
  GI50: 7.5 ± 1.3 µM
[3]
  GI50: 15.5 ± 3.9 µM

## O=C(/C=C/c1ccccc1C(F)(F)F)c1ccccc1 [Compound 4]
[2]
  GI50: 7.2 ± 0.3 µM
[3]
  GI50: 11.7 ± 3.6 µM

## O=C(/C=C/c1cccc(C(F)(F)F)c1)c1ccccc1 [Compound 5]
[2]
  GI50: 10 ± 0.4 µM
[3]
  GI50: 12.7 ± 3.2 µM

## O=C(/C=C/c1ccc(C(F)(F)F)cc1)c1ccccc1 [Compound 6]
[2]
  GI50: 14 ± 0.9 µM
[3]
  GI50: 12.2 ± 0.4 µM

## COc1ccccc1/C=C/C(=O)c1ccccc1 [Compound 7]
[2]
  GI50: 13.8 ± 0.3 µM
[3]
  GI50: 13 ± 4 µM

## COc1cccc(/C=C/C(=O)c2ccccc2)c1 [Compound 8]
[2]
  GI50: 13.2 ± 2.2 µM
[3]
  GI50: 14.5 ± 0.7 µM

## COc1ccc(/C=C/C(=O)c2ccccc2)cc1 [Compound 9]
[2]
  GI50: 14.4 ± 3.5 µM
[3]
  GI50: 16.7 ± 2.5 µM

## O=C(/C=C/c1ccccc1)c1ccccc1[N+](=O)[O-] [Compound 10]
[2]
  GI50: 5.8 ± 0.8 µM
[3]
  GI50: 8.3 ± 1.4 µM

## O=C(/C=C/c1ccccc1)c1cccc([N+](=O)[O-])c1 [Compound 11]
[2]
  GI50: 4.3 ± 1.5 µM
[3]
  GI50: 9 ± 0.1 µM

## O=C(/C=C/c1ccccc1)c1ccccc1C(F)(F)F [Compound 12]
[2]
  GI50: 5.8 ± 2.9 µM
[3]
  GI50: 10.8 ± 0.4 µM

## O=C(/C=C/c1ccccc1)c1cccc(C(F)(F)F)c1 [Compound 13]
[1]
  Ki: 4.6 µM
[2]
  GI50: > 20 µM
[3]
  GI50: > 20 µM
[4]
  mode of inhibition: competitive mode of inhibition
  Ki: 0.005 ± 0.0005 µM
[5]
  GI50: > 20 µM
[6]
  MAO activity after dialysis (reversibility): fully recovered

## O=C(/C=C/c1ccccc1)c1ccc(C(F)(F)F)cc1 [Compound 14]
[1]
  Ki: 9.2 µM
[4]
  mode of inhibition: competitive behavior
  Ki: 0.0146 ± 0.0001 µM

## COc1ccccc1C(=O)/C=C/c1ccccc1 [Compound 15]
[2]
  GI50: 7.3 ± 1.1 µM
[3]
  GI50: 14.8 ± 2 µM
[7]
  inhibitory potency on MAO-B: lower inhibitory potency than for 17

## COc1cccc(C(=O)/C=C/c2ccccc2)c1 [Compound 16]
[2]
  GI50: 8 ± 0.1 µM
[3]
  GI50: 14.7 ± 2.5 µM
[7]
  inhibitory potency on MAO-B: lower inhibitory potency than for 17

## COc1ccc(C(=O)/C=C/c2ccccc2)cc1 [Compound 17]
[1]
  Ki: 13 µM
[2]
  GI50: 6.8 ± 1 µM
[3]
  GI50: 11.7 ± 3.7 µM
[4]
  Ki: 0.022 µM and 0.0219 µM
[5]
  GI50: ~11.8 µM

## O=C(/C=C/c1ccccc1)c1ccccc1 [chalcone]
[1]
  Ki: 14.6 µM
[4]
  mode of inhibition: competitive behavior
  Ki: 0.056 ± 0.006 µM
[5]
  GI50: ~7 µM

## C[C@H](NCc1ccc(OCc2cccc(F)c2)cc1)C(N)=O [safinamide, reference compound]
[2]
  GI50: > 20 µM
[3]
  GI50: > 20 µM
[4]
  mode of inhibition: standard competitive inhibitor
[5]
  GI50: > 20 µM
